Values of other authors as cited in PubChem BioAssay AID1259410 (Chemical Carcinogenesis Research Information System (CCRIS), 2018).

Tested on: rodent tumor promotion studies, tumor incidence
Assay: CCRIS tumor promotion studies
[1] = Carcinogen: 7,12-DIMETHYLBENZ(A)ANTHRACENE, Doses [Carcinogen]: TOP, Route [Carcinogen]: DERMAL, Route [Promoter]: DERMAL, Species: MOUSE, Strain/Sex: MALE

In the case of `Oc1ccccc1O`, the outcome (Carcinogen: DIETHYLNITROSAMINE, 55-18-5, N-METHYL-N-NITROSOUREA, 684-93-5, 1,2-DIMETHYLHYDRAZINE, 540-73-8, N-BUTYL-N-(4-HYDRO, Carcinogen: DIETHYLNITROSAMINE, 55-18-5, N-METHYL-N-NITROSOUREA, 684-93-5, 1,2-DIMETHYLHYDRAZINE, 540-73-8, N-BUTYL-N-(4-HYDRO, Doses [Carcinogen]: 100 MG/KG BW DEN ONCE THEN 20 MG/KG BW MNU 1/D FOR 4 D FOLLOWED BY 40 MG/KG BW DMH 1/D FOR 4 D, 0.05% BHBN IN DRINKING W, Doses [Promoter]: 0, 0.8% IN DIET FOR 24 WK BEGINNING 3 D POST CARCINOGEN TREATMENT (STUDY DURATION: 28 WK), Route [Carcinogen]: INTRAPERITONEAL, INTRAPERITONEAL, SUBCUTANEOUS, ORAL, Route [Carcinogen]: INTRAPERITONEAL, INTRAPERITONEAL, SUBCUTANEOUS, ORAL, Route [Promoter]: ORAL, Species: RAT, Strain/Sex: F344/MALE) is listed as “forestomach: papilloma, squamous cell carcinoma; glandular stomach: adenoma, ade”, the outcome (Carcinogen: DIETHYLNITROSAMINE, 55-18-5, N-METHYLNITROSOUREA, 684-93-5, 1,2-DIMETHYLHYDRAZINE, 540-73-8, N-BUTYL-N-(4-HYDROXYBUTYL)N, Carcinogen: DIETHYLNITROSAMINE, 55-18-5, N-METHYLNITROSOUREA, 684-93-5, 1,2-DIMETHYLHYDRAZINE, 540-73-8, N-BUTYL-N-(4-HYDROXYBUTYL)N, Doses [Carcinogen]: 100 MG/KG BW DEN ONCE FOLLOWED BY 20 MG/KG BW MNU 2/WK FOR 2 WK THEN 40 MG/KG BW DMH 2/WK FOR THE NEXT 2WK, 0.05% BBN IN, Doses [Promoter]: 0, 0.16% IN DIET FOR 24 WK BEGINNING POST CARCINOGEN TREATMENT (STUDY DURATION: 28 WK), Route [Carcinogen]: INTRAPERITONEAL, INTRAPERITONEAL, SUBCUTANEOUS, ORAL, Route [Carcinogen]: INTRAPERITONEAL, INTRAPERITONEAL, SUBCUTANEOUS, ORAL, Route [Promoter]: ORAL, Species: RAT, Strain/Sex: F344/MALE) is listed as “forestomach: papilloma” and the outcome (Carcinogen: DIETHYLNITROSAMINE, 55-18-5, N-METHYLNITROSOUREA, 684-93-5, DIHYDROXY-DI-N- PROPYLNITROSAMINE, 53609-64-6, Carcinogen: DIETHYLNITROSAMINE, 55-18-5, N-METHYLNITROSOUREA, 684-93-5, DIHYDROXY-DI-N- PROPYLNITROSAMINE, 53609-64-6, Doses [Carcinogen]: 100 MG/KG/BW DEN ONCE AT BEGINNING OF STUDY THEN 20 MG/KG/BW MNU ONCE ON D 2, 5, 8 AND 11 OF STUDY FOLLOWED BY 0.1% DHPN, Doses [Promoter]: 0, 0.8% IN DIET BEGINNING POST CARCINOGEN TREATMENT AND CONTINUING FOR DURATION OF STUDY (STUDY DURATION: 20 WK), Route [Carcinogen]: INTRAPERITONEAL, INTRAPERITONEAL, ORAL, Route [Carcinogen]: INTRAPERITONEAL, INTRAPERITONEAL, ORAL, Route [Promoter]: ORAL, Species: RAT, Strain/Sex: F344/MALE) is listed as “forestomach: squamous cell papilloma”. For the same compound, the outcome (Carcinogen: METHYL-N-AMYLNITROSAMINE, 13256-07-0, Doses [Carcinogen]: 25 MG/KG AT WK 0, WK 1, AND WK 2 (TOTAL 3 TREATMENTS), Doses [Promoter]: 0, 0.8% IN DIET FOR 49 WK BEGINNING 1 WK POST CARCINOGEN DOSE (STUDY DURATION: 5 WK), Route [Carcinogen]: INTRAPERITONEAL, Route [Promoter]: ORAL, Species: RAT, Strain/Sex: F344/MALE) was “tongue: papilloma; esophagus: carcinoma”, the outcome (Carcinogen: N-METHYL-N'-NITRO-N-NITROSOGUANIDINE, 70-25-7, Doses [Carcinogen]: 150 MG/KG ONCE, Doses [Promoter]: 0, 0.8% IN DIET BEGINNING 1 WK POST CARCINOGEN DOSE (STUDY DURATION: 52 WK), Route [Carcinogen]: GAVAGE, Route [Promoter]: ORAL, Species: RAT, Strain/Sex: F344) was “forestomach: carcinoma; glandular stomach: adenocarcinoma” and the outcome (Carcinogen: N-METHYL-N-NITROSOUREA, 684-93-5, Doses [Carcinogen]: 120 PPM IN DRINKING WATER FOR 1-WK PERIODS EVERY OTHER WEEK FOR A TOTAL OF 3 WK OF TREATMENT, Doses [Promoter]: 0, 0.05, 0.2, 0.8% IN DIET FOR 30 WK BEGINNING POST CARCINOGEN TREATMENT (STUDY DURATION: 35 WK), Doses [Promoter]: 0, 0.05, 0.2, 0.8% IN DIET FOR 30 WK BEGINNING POST CARCINOGEN TREATMENT (STUDY DURATION: 35 WK), Route [Carcinogen]: ORAL, Route [Promoter]: ORAL, Species: MOUSE, Strain/Sex: BALB/MALE) was “glandular stomach: adenoma”. The outcome (Carcinogen: N-METHYL-N-NITROSOUREA, 684-93-5, Doses [Carcinogen]: 120 PPM IN DRINKING WATER FOR 1-WK PERIODS EVERY OTHER WK FOR A TOTAL OF 3 WK OF TREATMENT, Doses [Promoter]: 0, 0.8% IN DIET FOR 30 WK BEGINNING POST CARCINOGEN TREATMENT (STUDY DURATION: 35 WK), Route [Carcinogen]: ORAL, Route [Promoter]: ORAL, Species: MOUSE, Strain/Sex: BALB/MALE) was “glandular stomach: adenocarcinoma”.
In the case of `CC1=C2C(=CO[C@H](C)[C@H]2C)C(=O)C(C(=O)O)=C1O`, the outcome (Carcinogen: OCHRATOXIN A, 303-47-9, Doses [Carcinogen]: 0.25 ML OF A 50 PPM SOLUTION 2/WK FOR 20 WK, Doses [Promoter]: 0, 0.25 ML OF 50 PPM SOLUTION 2/WK FOR 20 WK ADMINISTERED SIMULTANEOUSLY WITH CARCINOGEN TREATMENT (STUDY DURATION: 20 W, Route [Carcinogen]: GAVAGE, Route [Promoter]: GAVAGE, Species: MOUSE, Strain/Sex: ALBINO/MALE,FEMALE) is listed as “kidney: tumor” and the outcome (Carcinogen: OCHRATOXIN A, 303-47-9, Doses [Carcinogen]: 0.25 ML OF A 50 PPM SOLUTION 2/WK FOR 20 WK, Doses [Promoter]: 0, 0.25 ML OF A 50 PPM SOLUTION ADMINISTERED SIMULTANEOUSLY WITH CARCINOGEN DOSE 2/WK FOR 20 WK (STUDY DURATION: 20 WK), Route [Carcinogen]: GAVAGE, Route [Promoter]: GAVAGE, Species: MOUSE, Strain/Sex: SWISS/MALE,FEMALE) is listed as “kidney: tumor”.
In the case of `C#CCN(C)Cc1ccccc1`, the outcome (Carcinogen: AZOXYMETHANE, 25843-45-2, Doses [Carcinogen]: 7.4 MG/KG BW IN 0.9% SALINE 1/WK FOR 10 WK, Doses [Promoter]: 0, 50 MG/KG BW 1/2 D FOR 35 WK (STUDY DURATION: 35 WK), Route [Carcinogen]: SUBCUTANEOUS, Route [Promoter]: SUBCUTANEOUS, Species: RAT, Strain/Sex: WISTAR/MALE) is listed as “colon: tumor”.
For `CCCCCCCC/C=C\CCCCCCCC(=O)OC[C@@H](O)[C@H]1OC[C@H](O)[C@H]1O`, the outcome [1] is given as “integumentary system (skin)”.
For `CC(C)=CCC/C(C)=C/CC/C(C)=C/CC/C=C(\C)CC/C=C(\C)CCC=C(C)C`, the outcome [1] is given as “integumentary system (skin)”.
In the case of `c1ccc(-c2ccccc2)cc1`, the outcome (Carcinogen: N-BUTYL-N-(4-HYDROXYBUTYL)NITROSAMINE, 3817-11-6, Doses [Carcinogen]: 0.05% IN DRINKING WATER FOR 4 WK, Doses [Promoter]: 0, 0.5% IN DIET FOR 32 WK BEGINNING POST CARCINOGEN TREATMENT (STUDY DURATION: 36 WK), Route [Carcinogen]: ORAL, Route [Promoter]: ORAL, Species: RAT, Strain/Sex: F344/MALE) is given as “urinary bladder: papilloma, carcinoma”.
For `COc1ccc2c(c1)c(CC(=O)O)c(C)n2C(=O)c1ccc(Cl)cc1`, the outcome (Carcinogen: N-(4-(5-NITRO-2-FURYL)-2-THIAZOLYL)FORMAMIDE, 24554-26-5, Doses [Carcinogen]: 0.2% IN DIET FOR 7 WK, Doses [Promoter]: 0, 1 MG/KG/D IN DRINKING WATER FOR DURATION OF STUDY (STUDY DURATION: 92 WK), Route [Carcinogen]: ORAL, Route [Promoter]: ORAL, Species: RAT, Strain/Sex: SPRAGUE-DAWLEY/FEMALE) is given as “urinary tract: tumor”.
In the case of `C=C1C[C@@H]2[C@H](CC[C@]3(C)C(=O)CC[C@@H]23)[C@@]2(C)C=CC(=O)C=C12`, the outcome (Carcinogen: N-Methyl-N-nitrosourea, 684-93-5, Doses [Carcinogen]: 50 mg/kg bw, intraperitoneal, twice on days 43 and 49 of age, Doses [Promoter]: 0, 0.0001, 0.001% in diet from 7 d before carcinogen administration for 12 wks (Study duration 12 wks), Route [Carcinogen]: intraperitoneal, Route [Promoter]: Oral, Species: Rat, Strain/Sex: Sprague-Dawley/Female (19-20/Group)) is given as “mammary gland: various (statistically significant increase in tumor frequency, b”.
For `CN(C)CCOc1ccc(/C(=C(/CCCl)c2ccccc2)c2ccccc2)cc1`, the outcome (Carcinogen: DIETHYLNITROSAMINE, 55-18-5, Doses [Carcinogen]: 2.5 UG/G BW IN SALINE ONCE, Doses [Promoter]: 0, 0.5-1 MG IN PELLET IMPLANTED 1/MONTH FOR 30 WK BEGINNING 30 D POST CARCINOGEN TREATMENT (STUDY DURATION: 240 D), Route [Carcinogen]: INTRAPERITIONEAL, Route [Promoter]: SUBCUTANEOUS, Species: MOUSE, Strain/Sex: B6C3F1/FEMALE) is listed as “liver: tumor”.
In the case of `Cc1cccc(C)c1N`, the outcome (Carcinogen: N-BIS(2-HYDROXYPROPYL)NITROSAMINE) [53609-64-6], Doses [Carcinogen]: 2400 MG/KG BW ONCE (STUDY DURATION: 53 WK), Doses [Promoter]: 3000 PPM IN DIET FOR 52 WK BEGINNING 1 WK POST LAST CARCINOGEN DOSE (STUDY DURATION: 53 WK), Route [Carcinogen]: SUBCUTANEOUS, Route [Promoter]: ORAL, Species: RAT, Strain/Sex: F344/MALE) is listed as “nasal cavity: carcinoma”.
In the case of `O=C(CCNNC(=O)c1ccncc1)NCc1ccccc1`, the outcome (Carcinogen: N-METHYL-N'-NITRO-NITROSOGUANIDINE, Doses [Carcinogen]: 25 UG/ML IN DRINKING WATER FOR 25 WK, Doses [Promoter]: 0, 50 MG/KG IN OLIVE OIL 1/2D FOR 26 WK ADMINISTERED POST CARCINOGEN DOSES (STUDY DURATION: 52 WK), Route [Carcinogen]: ORAL, Route [Promoter]: SUBCUTANEOUS, Species: RAT, Strain/Sex: WISTAR/MALE) is listed as “glandular stomach: adenocarcinoma”.
